The compounds below were run on recombinant rabies virus 1088 strain expressing Gaussia Luciferase (GLuc) (1088/GLuc). Conditions: read-out: Anti-rabies activity.
Format: cell-based
`CCCCCCNC(=O)[C@@]12C[C@@H]3CN(Cc4cccc5ccccc45)[C@@H]([C@@H]3CN1)[C@H]2CCCNC(=N)N` (relative stereo) [IF-243] was tested, and the IC50 was < 5 µM. For `CC(C)NC(=O)[C@@]12C[C@@H]3CN(Cc4cccc5ccccc45)[C@@H]([C@@H]3CN1)[C@H]2CCCNC(=N)N` (relative stereo) [IF-244], the IC50 was < 5 µM. In the case of `N=C(N)NCCC[C@@H]1[C@@H]2[C@@H]3CN[C@@]1(C(=O)NCc1ccc(F)cc1)C[C@@H]3CN2Cc1cccc2ccccc12` (relative stereo) [IF-245], the IC50 is reported as < 5 µM. Compound `NC(=O)C[C@@H]1[C@@H]2[C@@H]3CN[C@@]1(C(=O)NCc1ccccc1)C[C@@H]3CN2CC1CCCCC1` (relative stereo) [IF-246] has an IC50 of 10 to 30 µM. Work on `NC(=O)C[C@@H]1[C@@H]2[C@@H]3CN[C@@]1(C(=O)NCc1ccc(O)cc1)C[C@@H]3CN2CC1CCCCC1` (relative stereo) [IF-247] yielded an IC50 of 10 to 30 µM. With `NC(=O)C[C@@H]1[C@@H]2[C@@H]3CN[C@@]1(C(=O)NCCc1ccccc1)C[C@@H]3CN2CC1CCCCC1` (relative stereo) [IF-251] the IC50 was 10 to 30 µM. `CCCCCCNC(=O)[C@@]12C[C@@H]3CN(CC4CCCCC4)[C@@H]([C@@H]3CN1)[C@H]2CCCNC(=N)N` (relative stereo) [IF-260] gave an IC50 of 10 to 30 µM. With `CC(C)CNC(=O)[C@@]12C[C@@H]3CN(Cc4ccc(F)cc4)[C@@H]([C@@H]3CN1)[C@H]2CC(N)=O` (relative stereo) [IF-262] the IC50 was < 5 µM. Compound `NC(=O)C[C@@H]1[C@@H]2[C@@H]3CN[C@@]1(C(=O)NCCc1ccccc1)C[C@@H]3CN2Cc1ccc(F)cc1` (relative stereo) [IF-269] has an IC50 of 10 to 30 µM. For `CC(C)NC(=O)[C@@]12C[C@@H]3CN(Cc4ccc(F)cc4)[C@@H]([C@@H]3CN1)[C@H]2CCCNC(=N)N` (relative stereo) [IF-274], the IC50 was 10 to 30 µM. With `N=C(N)NCCC[C@@H]1[C@@H]2[C@@H]3CN[C@@]1(C(=O)NCc1cccc4ccccc14)C[C@@H]3CN2Cc1ccccc1` (relative stereo) [IF-284] the IC50 was 10 to 30 µM. `CCCCCCNC(=O)[C@@]12C[C@@H]3CN(Cc4ccccc4)[C@@H]([C@@H]3CN1)[C@H]2CCCNC(=N)N` (relative stereo) [IF-285] was tested, and the IC50 was 10 to 30 µM. In the case of `N=C(N)NCCC[C@@H]1[C@@H]2[C@@H]3CN[C@@]1(C(=O)NCc1cccc4ccccc14)C[C@@H]3CN2Cc1ccc(F)cc1` (relative stereo) [IF-297], the IC50 is reported as 10 to 30 µM. Work on `CCCCCCNC(=O)[C@@]12C[C@@H]3CN(Cc4ccc(F)cc4)[C@@H]([C@@H]3CN1)[C@H]2CCCNC(=N)N` (relative stereo) [IF-298] yielded an IC50 of 10 to 30 µM. `CC(C)CC[C@@H]1[C@@H]2[C@@H]3CN[C@@]1(C(=O)NCCC(N)=O)C[C@@H]3CN2CC(C)C` (relative stereo) [IF-300] showed an IC50 of 10 to 30 µM. In the case of `CC(C)CC[C@@H]1[C@@H]2[C@@H]3CN[C@@]1(C(=O)NCCC(N)=O)C[C@@H]3CN2Cc1cccc2ccccc12` (relative stereo) [IF-384], the IC50 is reported as 10 to 30 µM. `N=C(N)NCCCNC(=O)[C@@]12C[C@@H]3CN(Cc4cccc5ccccc45)[C@@H]([C@@H]3CN1)[C@H]2Cc1ccccc1` (relative stereo) [IF-386] was tested, and the IC50 was 10 to 30 µM. For `N=C(N)NCCCNC(=O)[C@@]12C[C@@H]3CN(Cc4cccc5ccccc45)[C@@H]([C@@H]3CN1)[C@H]2CCc1ccccc1` (relative stereo) [IF-389], the IC50 was < 5 µM. `N=C(N)NCCCNC(=O)[C@@]12C[C@@H]3CN(Cc4cccc5ccccc45)[C@@H]([C@@H]3CN1)[C@H]2Cc1cccc2ccccc12` (relative stereo) [IF-390] was tested, and the IC50 was 10 to 30 µM. With `CC(C)CC[C@@H]1[C@@H]2[C@@H]3CN[C@@]1(C(=O)NCC(C)C)C[C@@H]3CN2Cc1ccccc1` (relative stereo) [IF-411] the IC50 was < 5 µM. For `CC(C)CC[C@@H]1[C@@H]2[C@@H]3CN[C@@]1(C(=O)NCC(C)C)C[C@@H]3CN2CC(C)C` (relative stereo) [IF-412], the IC50 was < 5 µM. Work on `CC(C)CCN1C[C@H]2C[C@]3(C(=O)NCCC(=O)O)NC[C@H]2[C@H]1[C@H]3Cc1cccc2ccccc12` (relative stereo) [IF-413] yielded an IC50 of 10 to 30 µM. `CC(C)CCN1C[C@H]2C[C@]3(C(=O)NCc4ccc(O)cc4)NC[C@H]2[C@H]1[C@H]3CCc1ccccc1` (relative stereo) [IF-464] showed an IC50 of 10 to 30 µM. In the case of `CC(C)CCN1C[C@H]2C[C@]3(C(=O)NCc4ccc(O)cc4)NC[C@H]2[C@H]1[C@H]3Cc1cccc2ccccc12` (relative stereo) [IF-465], the IC50 is reported as 10 to 30 µM. Compound `CC(C)CCN1C[C@H]2C[C@]3(C(=O)NCc4ccc(O)cc4)NC[C@H]2[C@H]1[C@H]3Cc1ccccc1` (relative stereo) [IF-466] has an IC50 of 10 to 30 µM. `CC(C)CC[C@@H]1[C@@H]2[C@@H]3CN[C@@]1(C(=O)NCc1ccc(O)cc1)C[C@@H]3CN2CCc1ccccc1` (relative stereo) [IF-468] showed an IC50 of 10 to 30 µM. `O=C(NCc1ccc(O)cc1)[C@@]12C[C@@H]3CN(CCc4ccccc4)[C@@H]([C@@H]3CN1)[C@H]2Cc1ccccc1` (relative stereo) [IF-469] was tested, and the IC50 was 10 to 30 µM. `CC(C)C[C@@H]1[C@@H]2[C@@H]3CN[C@@]1(C(=O)NCc1ccc(O)cc1)C[C@@H]3CN2CCc1ccccc1` (relative stereo) [IF-470] was tested, and the IC50 was 10 to 30 µM. `O=C(NCc1ccc(O)cc1)[C@@]12C[C@@H]3CN(Cc4cccc5ccccc45)[C@@H]([C@@H]3CN1)[C@H]2Cc1ccccc1` (relative stereo) [IF-472] was tested, and the IC50 was < 5 µM. In the case of `CC(C)C[C@@H]1[C@@H]2[C@@H]3CN[C@@]1(C(=O)NCc1ccc(O)cc1)C[C@@H]3CN2Cc1cccc2ccccc12` (relative stereo) [IF-473], the IC50 is reported as < 5 µM. With `CC(C)CC[C@@H]1[C@@H]2[C@@H]3CN[C@@]1(C(=O)NCc1ccc(O)cc1)C[C@@H]3CN2CC1CCCCC1` (relative stereo) [IF-474] the IC50 was < 5 µM. With `O=C(NCc1ccc(O)cc1)[C@@]12C[C@@H]3CN(CC4CCCCC4)[C@@H]([C@@H]3CN1)[C@H]2CCc1ccccc1` (relative stereo) [IF-475] the IC50 was 10 to 30 µM. `O=C(NCc1ccc(O)cc1)[C@@]12C[C@@H]3CN(CC4CCCCC4)[C@@H]([C@@H]3CN1)[C@H]2Cc1ccccc1` (relative stereo) [IF-477] was tested, and the IC50 was < 5 µM. In the case of `CC(C)C[C@@H]1[C@@H]2[C@@H]3CN[C@@]1(C(=O)NCc1ccc(O)cc1)C[C@@H]3CN2CC1CCCCC1` (relative stereo) [IF-478], the IC50 is reported as < 5 µM. In the case of `CC(C)CC[C@@H]1[C@@H]2[C@@H]3CN[C@@]1(C(=O)NCc1ccc(O)cc1)C[C@@H]3CN2Cc1ccc(F)cc1` (relative stereo) [IF-479], the IC50 is reported as < 5 µM. `O=C(NCc1ccc(O)cc1)[C@@]12C[C@@H]3CN(Cc4ccc(F)cc4)[C@@H]([C@@H]3CN1)[C@H]2Cc1ccccc1` (relative stereo) [IF-481] showed an IC50 of 10 to 30 µM. For `CC(C)C[C@@H]1[C@@H]2[C@@H]3CN[C@@]1(C(=O)NCc1ccc(O)cc1)C[C@@H]3CN2Cc1ccc(F)cc1` (relative stereo) [IF-482], the IC50 was 10 to 30 µM. `O=C(NCCO)[C@@]12C[C@@H]3CN(CC4CCCCC4)[C@@H]([C@@H]3CN1)[C@H]2Cc1ccccc1` (relative stereo) [IF-486] showed an IC50 of 10 to 30 µM. With `CC(C)CC[C@@H]1[C@@H]2[C@@H]3CN[C@@]1(C(=O)NCCO)C[C@@H]3CN2Cc1ccc(F)cc1` (relative stereo) [IF-490] the IC50 was 10 to 30 µM. `CC(C)CC[C@@H]1[C@@H]2[C@@H]3CN[C@@]1(C(=O)NCc1ccc(O)cc1)C[C@@H]3CN2Cc1ccccc1` (relative stereo) [IF-493] was tested, and the IC50 was < 5 µM. Work on `O=C(NCc1ccc(O)cc1)[C@@]12C[C@@H]3CN(Cc4ccccc4)[C@@H]([C@@H]3CN1)[C@H]2Cc1ccccc1` (relative stereo) [IF-494] yielded an IC50 of 10 to 30 µM.

Reference: patent publication EP4104902B1, “COMPOUNDS AND M[…] SAME” (priority 2020, dated 2021)
